Reference: patent US5969138A, “Pyrrolidinone derivatives” (Mitsui Chemicals, Inc., priority 1996, dated 1999)

Tests used:
[1] = test system: head weaving behavior induced by a receptor agonist SKF-10047; test: Persistence of anti-SKF effect (SKF-10047 4 hours after test drug); format: in vivo, mouse (male ddY); conditions: mouse, oral, SKF-10047 20 mg/kg s.c. 4 hours after test drug
Protocol: Evaluation Example 5 (Persistence of anti-SKF effect) Procedure
(§1) Persistence of antipsychotic activity for a test drug was studied by means of head weaving behavior induced by a receptor agonist SKF-10047 for a mouse. For the experiment were used 10 male ddY mice aged 5 weeks (Nippon SLC) per a group. The mice were placed in a measuring cage and calmed 1 hour before the initiation of the test. To the mice was orally administered a test drug and after 4 hours was subcutaneously administered SKF-10047 in a dose of 20 mg/kg. After 20 min, head weaving was counted for 10 min.

[2] = test system: reverse tolerance development to methamphetamine (stereotyped behavior); test: Effect on reverse tolerance development due to repetitive administration of methamphetamine; format: in vivo, rat (male Std:Wistar(ST)); conditions: rat
Protocol: Evaluation Example 6 (Effect to reverse tolerance development due to repetitive administration of methamphetamine) For the experiment, male Std:Wistar(ST) rat (Nippon SLC) aged 5 weeks were used. A test drug, the compound of formula (IV) described in JP-A 7-252219 or the compound of formula (V) described in JP-A 9-40667 was dissolved in purified water or 0.5% C.M.C./saline. Methamphetamine (mAMP) was dissolved in saline. Dosage volume was 1 mL/kg body weight.
The drugs were repetitively administered for 10 days with a regimen that to a rat, a test drug was orally or intraperitoneally administered and after 60 min mAMP was intraperitoneally administered in a dose of 2 mg/kg. To a normal group, solvent alone was administered in place of the combination of the test drug and mAMP. To a control group, solvent was orally or intraperitoneally administered, and then intraperitoneally mAMP was additionally administered.
After the repetitive administration, there was provided a withdrawal period for 7 days during which the test drug or mAMP was not administered. After the withdrawal, the test drug was discontinued and mAMP was administered in a dose of 2 mg/kg, and then stereotyped behavior of the animal was observed.
After administering mAMP, stereotyped behavior was rated in accordance with the following scale, for 1 min every 10 min until 60 min.
The results are expressed as an inhibition (%) of reverse tolerance development calculated from the following equation, using a total score for six minutes: Inhibition of reverse tolerance development (%)=100-A […]
wherein A represents a value calculated from the following equation:
A=[{(Score for the test drug group)-(Score for the normal group)}/{(Score for the control group)-(Score for the normal group)}]×100

[3] = Blood kinetics; format: in vivo, dog (male beagle); conditions: 10 mg/kg, plasma; for Cmax / half-life: beagle dog; for Cmax: HPLC; for bioavailability: dog, po, read-out: Extent of Bioavailability; for half-life: estimated from intravenous administration
Protocol: Evaluation Example 7 (Blood kinetics)
For the experiment, male beagle dogs were employed. A test drug was intravenously or orally administered in a dose of 10 mg/kg. Blood samples were collected at 0.25, 0.5, 1, 2, 4, 6 and 24 hours after administering the test drug, and the samples were centrifuged to separate plasma, for which a plasma level of the test drug was determined by HPLC. Half-life of the test drug in blood was estimated from the results at the intravenous administration. An extent of bioavailability is expressed as a rate of AUC at the oral administration to AUC at the intravenous administration.

[4] = Safety: simple acute toxicity for a mouse; format: in vivo
Protocol: Evaluation Example 8 (Safety)
For the experiment, male Std:ddY mice aged 5 weeks were used. The mice were weighed, and then calmed in an observation cage for more than 1 hour. To the mice, a test drug was orally administered in a dose of 300 mg/kg to observe them for general symptoms until 2 hours.

[5] = test system: head weaving behavior induced by a σ-receptor agonist SKF-10047; test: Anti-SKF effect: inhibition of SKF-10047-induced head weaving; format: in vivo, mouse (male ddY); conditions: 1 h; mouse, oral treatment before 60 min; SKF-10047 20 mg/kg s.c.
Protocol: Evaluation Example 3 (Anti-SKF effect)
as §1, with “Antipsychotic” for “Persistence of antipsychotic”, “σ-receptor” for “receptor”, “60 min” for “4 hours”

[6] = test system: head weaving behavior induced by phencyclidine (PCP); test: Anti-PCP effect: inhibition of phencyclidine-induced head weaving; format: in vivo, rat (male Wistar(ST)); conditions: oral treatment before 60 min, PCP 7.5 mg/kg i.p.; for ED50: Rattus norvegicus, po, 1 h; for ED50 Anti-PCP: rat, 60 min
Protocol: Evaluation Example 4 (Anti-PCP effect)
Antipsychotic activity for a test drug was studied by means of head weaving behavior induced by phencyclidine (PCP) for a rat. For the experiment were used male Wistar(ST) rats aged 4weeks (Nippon SLC). The rats were placed in a measuring cage and calmed 1 hour before the initiation of the test. To the rats was orally administered a test drug and after 60 min was intraperitoneally administered PCP in a dose of 7.5 mg/kg. After 20 min, head weaving was counted for 10 min. Efficacy of the drug was evaluated by determining an inhibition (%) compared with the control group from the average of the scores of the test-drug groups, and then estimating a ED50 value.

[7] = molecular target: T1, D2 receptor (Rattus norvegicus, UniProt P61169); test: Radioreceptor assay for D2 receptor (3H-spiperone, cerebral striatal homogenate); format: binding; conditions: read-out: Affinity for a receptor, Ki D2
T1 construct: from tissue; host or cells: rat cerebral striatal homogenate
T1 sequence (P61169 whole entry): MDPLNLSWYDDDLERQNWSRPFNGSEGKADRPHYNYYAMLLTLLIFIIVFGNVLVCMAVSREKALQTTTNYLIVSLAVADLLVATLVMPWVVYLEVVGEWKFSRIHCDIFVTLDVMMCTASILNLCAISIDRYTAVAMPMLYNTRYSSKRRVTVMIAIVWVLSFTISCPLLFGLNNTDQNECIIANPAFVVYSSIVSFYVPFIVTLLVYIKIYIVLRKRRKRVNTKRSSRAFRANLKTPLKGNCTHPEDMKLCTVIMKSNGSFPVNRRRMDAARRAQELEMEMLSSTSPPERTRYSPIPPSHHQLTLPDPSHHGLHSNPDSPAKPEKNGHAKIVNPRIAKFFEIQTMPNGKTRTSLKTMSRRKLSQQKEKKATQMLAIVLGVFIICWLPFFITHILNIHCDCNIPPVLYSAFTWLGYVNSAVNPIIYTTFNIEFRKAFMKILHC
Protocol: Evaluation Example 2 (Radioreceptor assay for D2 receptor) ^3 H-spiperone (Amersham) and a test drug were incubated with a homogenate of rat cerebral striatal site as described in D. R. Burt et al., Proc.Natl.Acad.Sci.U.S.A. 72:4655 (1975), and Ki value was determined as described in the above r radioreceptor assay.

[8] = test system: sigma receptor; conditions: background; cited from earlier work
[9] = molecular target: T2, σ1 receptor (Cavia porcellus, UniProt Q60492); test: Radioreceptor assay for a σ1 receptor (3H-(+)pentazocine binding, whole brain P2 fraction); conditions: guinea pig brain P2 fraction, 3 nM 3H-(+)pentazocine, room temperature, 2 hours; read-out: Affinity for a receptor, Ki σ1
T2 construct: prepared from a whole brain of a guinea pig without cerebellum and medulla; from tissue; host or cells: P2 fraction of guinea pig whole brain without cerebellum and medulla
T2 sequence (Q60492 whole entry): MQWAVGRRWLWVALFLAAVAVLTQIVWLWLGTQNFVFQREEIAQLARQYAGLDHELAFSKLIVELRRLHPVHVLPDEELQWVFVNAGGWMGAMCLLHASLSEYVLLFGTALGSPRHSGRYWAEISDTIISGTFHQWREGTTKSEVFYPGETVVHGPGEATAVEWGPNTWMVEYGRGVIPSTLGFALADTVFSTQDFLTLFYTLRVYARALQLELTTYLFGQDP

[10] = 300 mg/kg oral, observed until 2 hours

Structure (SMILES) | Convulsion/Treatment [4, 10] | ED50 [5] | ED50 [6] | Ki [7] | Ki [9] | other results
COC1CCN(C[C@H]2CCN(c3ccc(Cl)cc3)C2=O)CC1 [Compd. of formula (V), reference compound] | 1/3 |  |  |  |  | ED50 [1]: 23.2 mg/kg; Inhibition of reverse tolerance ([2]; 10.0 mg/kg intraperitoneal): 81.7%; Inhibition of reverse tolerance ([2]; 30.0 mg/kg intraperitoneal): 87.8%; Cmax [3]: 460 ng/mL; bioavailability [3]: 64.3%; half-life [3]: 1.5 h; Death/Treatment [4, 10]: 0/3
CCCCN1CCN(CC2CCN(c3cccc(C(F)(F)F)c3)C2=O)CC1 (stereo not shown) [Compound of formula (IV), reference compound] | 5/5 | 14 mg/kg | 11 mg/kg |  |  | ED50 [1]: > 100 mg/kg; Inhibition of reverse tolerance ([2]; 30.0 mg/kg intraperitoneal): 92.9%; Death/Treatment [4, 10]: 5/5
C[C@@H]1CN(CCCn2c3ccccc3c3ccccc32)C[C@H](C)N1 [Rimcazole, reference compound] |  |  |  | 11.6 µM |  | affinity or specificity to a sigma receptor [8]: inadequate affinity or specificity to a sigma receptor
COCCN1CCN(CC2CCN(c3ccc(Cl)cc3)C2=O)CC1 (stereo not shown) [compound 2] | 0/6 | 2.1 mg/kg | 1.3 mg/kg | > 3.3 µM | 0.085 µM | Death/Treatment ([4]; in vivo, po, 300 mg/kg): 0/6
CCOCCN1CCN(CC2CCN(c3ccc(Cl)cc3)C2=O)CC1 (stereo not shown) [compound 8] | 0/3 |  |  | > 3.3 µM | 0.014 µM | Death/Treatment ([4]; in vivo, po, 300 mg/kg): 0/3
C#CCOCCN1CCN(CC2CCN(c3ccc(Cl)cc3)C2=O)CC1 (stereo not shown) [compound 10] |  |  |  | > 3.3 µM | 0.01 µM | 
COCCN1CCN(CC2CCN(c3ccc(Br)cc3)C2=O)CC1 (stereo not shown) [compound 16] | 0/5 | 0.52 mg/kg | 1.9 mg/kg |  |  | Death/Treatment ([4]; in vivo, po, 300 mg/kg): 0/5
COCCN1CCN(CC2CCN(c3cccc(Br)c3)C2=O)CC1 (stereo not shown) [compound 18] |  |  |  | > 2.8 µM | 0.0075 µM | 
COCCN1CCN(C[C@H]2CCN(c3ccc(Cl)cc3)C2=O)CC1 [compound 21] | 0/4 | 0.77 mg/kg | 0.75 mg/kg | > 3.9 µM | 0.072 µM | ED50 [1]: 3.19 mg/kg; Inhibition of reverse tolerance ([2]; 7.5 mg/kg oral): 81.0%; Inhibition of reverse tolerance ([2]; 15.0 mg/kg oral): 93.9%; Cmax [3]: 1520 ng/mL; bioavailability [3]: 83.1%; half-life [3]: 3.5 h; Death/Treatment [4, 10]: 0/4
COCCN1CCN(C[C@H]2CCN(c3ccc(Cl)cc3)C2=O)CC1 [compound 37] |  |  |  |  |  | ED50 Anti-PCP [6]: 1.15 mg/kg
COCCN1CCN(C[C@H]2CCN(c3ccc(Cl)cc3)C2=O)CC1 [compound 38] |  |  |  |  |  | ED50 Anti-PCP [6]: 1.48 mg/kg
COCCN1CCN(C[C@H]2CCN(c3ccc(Cl)cc3)C2=O)CC1 [compound 39] |  |  |  |  |  | ED50 Anti-PCP [6]: 1.08 mg/kg
